Earlier results, collected in patent US5855881A, “Mammalian alcohol dehydrogenase and aldehyde dehydrogenase production in plants” (priority 1996, dated 1999).

Tests used:
[1] = target: T1, human ALDH4 (glutamic γ semialdehyde dehydrogenase, GSDH) (Homo sapiens, UniProt P30038); settings: read-out: Km toward acetaldehyde
T1 construct: at least five ALDHs that have been purified and characterized from human liver or stomach; host or cells: purified from human liver or stomach (Yin et al. 1993)
T1 sequence (P30038 25-563): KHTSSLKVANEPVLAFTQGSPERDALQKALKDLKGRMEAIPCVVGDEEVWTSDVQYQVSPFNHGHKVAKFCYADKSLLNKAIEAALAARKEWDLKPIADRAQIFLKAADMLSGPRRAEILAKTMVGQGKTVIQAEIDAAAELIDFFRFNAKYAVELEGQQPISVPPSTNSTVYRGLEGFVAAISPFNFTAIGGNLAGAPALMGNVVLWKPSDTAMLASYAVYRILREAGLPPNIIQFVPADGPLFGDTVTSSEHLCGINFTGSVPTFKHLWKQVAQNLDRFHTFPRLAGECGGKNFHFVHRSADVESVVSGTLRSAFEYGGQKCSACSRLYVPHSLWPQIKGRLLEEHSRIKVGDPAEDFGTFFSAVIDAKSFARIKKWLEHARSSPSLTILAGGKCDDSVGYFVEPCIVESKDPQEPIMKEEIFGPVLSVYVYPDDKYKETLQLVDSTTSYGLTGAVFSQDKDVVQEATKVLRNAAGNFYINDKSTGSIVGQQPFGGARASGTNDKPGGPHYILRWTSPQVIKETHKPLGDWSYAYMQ

[2] = target: T2, human ALDH3 (aldehyde dehydrogenase) (Homo sapiens, UniProt P30838); settings: read-out: Km toward acetaldehyde
T2 construct: at least five ALDHs that have been purified and characterized from human liver or stomach; host or cells: purified from human liver or stomach (Yin et al. 1993)
T2 sequence (P30838 1-453): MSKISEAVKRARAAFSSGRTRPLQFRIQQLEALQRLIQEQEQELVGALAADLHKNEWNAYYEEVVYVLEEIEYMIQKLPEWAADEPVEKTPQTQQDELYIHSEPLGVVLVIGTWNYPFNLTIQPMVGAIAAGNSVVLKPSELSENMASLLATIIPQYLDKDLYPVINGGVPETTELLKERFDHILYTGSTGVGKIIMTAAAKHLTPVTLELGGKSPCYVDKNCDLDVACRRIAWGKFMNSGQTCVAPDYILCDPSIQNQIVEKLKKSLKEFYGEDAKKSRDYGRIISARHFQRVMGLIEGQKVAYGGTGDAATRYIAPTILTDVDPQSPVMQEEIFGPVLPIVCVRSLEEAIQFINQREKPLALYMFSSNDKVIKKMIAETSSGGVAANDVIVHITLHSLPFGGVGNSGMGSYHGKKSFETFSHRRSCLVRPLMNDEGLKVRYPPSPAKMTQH

[3] = target: T3, human cytosolic ALDH1 (aldehyde dehydrogenase) (Homo sapiens, UniProt P00352); settings: read-out: Km toward acetaldehyde
T3 construct: at least five ALDHs that have been purified and characterized from human liver or stomach; host or cells: purified from human liver or stomach (Yin et al. 1993)
T3 sequence (P00352 1-501): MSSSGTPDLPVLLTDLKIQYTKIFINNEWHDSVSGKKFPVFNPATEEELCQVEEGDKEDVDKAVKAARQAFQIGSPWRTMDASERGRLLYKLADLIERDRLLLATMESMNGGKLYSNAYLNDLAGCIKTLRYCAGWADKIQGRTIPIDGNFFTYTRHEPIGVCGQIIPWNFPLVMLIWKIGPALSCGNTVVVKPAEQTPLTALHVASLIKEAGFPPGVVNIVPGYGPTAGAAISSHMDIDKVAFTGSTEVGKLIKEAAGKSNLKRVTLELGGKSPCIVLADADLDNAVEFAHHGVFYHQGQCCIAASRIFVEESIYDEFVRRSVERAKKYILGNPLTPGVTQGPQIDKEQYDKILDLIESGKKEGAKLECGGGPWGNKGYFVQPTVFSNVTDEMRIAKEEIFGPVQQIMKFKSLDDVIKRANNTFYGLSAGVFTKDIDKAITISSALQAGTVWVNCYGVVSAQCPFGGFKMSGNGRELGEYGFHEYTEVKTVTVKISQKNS

[4] = target: T4, human mitochondrial ALDH2 (aldehyde dehydrogenase) (Homo sapiens, UniProt P05091); settings: read-out: Km toward acetaldehyde
T4 construct: at least five ALDHs that have been purified and characterized from human liver or stomach; host or cells: purified from human liver or stomach (Yin et al. 1993)
T4 sequence (P05091 18-517): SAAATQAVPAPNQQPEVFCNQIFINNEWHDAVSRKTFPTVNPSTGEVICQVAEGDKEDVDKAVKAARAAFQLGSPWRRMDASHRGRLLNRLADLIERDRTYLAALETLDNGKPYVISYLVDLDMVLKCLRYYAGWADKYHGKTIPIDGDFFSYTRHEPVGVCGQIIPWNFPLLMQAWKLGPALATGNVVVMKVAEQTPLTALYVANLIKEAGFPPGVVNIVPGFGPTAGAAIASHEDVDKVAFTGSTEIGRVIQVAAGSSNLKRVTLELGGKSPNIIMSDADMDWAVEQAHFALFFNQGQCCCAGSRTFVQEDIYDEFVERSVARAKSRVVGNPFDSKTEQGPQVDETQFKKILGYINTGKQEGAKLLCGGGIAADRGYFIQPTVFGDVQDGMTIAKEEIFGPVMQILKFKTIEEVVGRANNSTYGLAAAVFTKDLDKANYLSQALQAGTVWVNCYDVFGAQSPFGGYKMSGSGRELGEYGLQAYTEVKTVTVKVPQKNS

[5] = target: T5, human γ-aminobutyraldehyde dehydrogenase (GABALDH) (Homo sapiens, UniProt P49189); settings: read-out: Km toward acetaldehyde
T5 construct: γ-aminobutyraldehyde dehydrogenase has been purified from liver; host or cells: purified from human liver (Yin et al. 1993)
T5 sequence (P49189 whole entry): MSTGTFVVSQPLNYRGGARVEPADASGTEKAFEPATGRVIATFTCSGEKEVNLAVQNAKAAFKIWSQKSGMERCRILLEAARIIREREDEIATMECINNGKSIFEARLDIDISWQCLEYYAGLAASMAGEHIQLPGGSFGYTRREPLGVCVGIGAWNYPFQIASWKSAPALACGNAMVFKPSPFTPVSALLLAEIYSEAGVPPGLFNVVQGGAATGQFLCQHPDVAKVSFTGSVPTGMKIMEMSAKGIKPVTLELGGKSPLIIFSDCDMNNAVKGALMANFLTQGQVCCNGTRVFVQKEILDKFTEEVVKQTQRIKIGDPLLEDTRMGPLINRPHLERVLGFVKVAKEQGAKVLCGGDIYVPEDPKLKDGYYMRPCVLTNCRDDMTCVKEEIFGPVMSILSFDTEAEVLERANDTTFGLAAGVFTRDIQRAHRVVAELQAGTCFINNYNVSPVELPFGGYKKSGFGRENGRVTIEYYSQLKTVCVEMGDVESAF

[6] = target: human class IV σ-ADH (stomach alcohol dehydrogenase) (Homo sapiens, UniProt P40394)
Sequence of human class IV σ-ADH (stomach alcohol dehydrogenase) (P40394 14-386 limits assumed): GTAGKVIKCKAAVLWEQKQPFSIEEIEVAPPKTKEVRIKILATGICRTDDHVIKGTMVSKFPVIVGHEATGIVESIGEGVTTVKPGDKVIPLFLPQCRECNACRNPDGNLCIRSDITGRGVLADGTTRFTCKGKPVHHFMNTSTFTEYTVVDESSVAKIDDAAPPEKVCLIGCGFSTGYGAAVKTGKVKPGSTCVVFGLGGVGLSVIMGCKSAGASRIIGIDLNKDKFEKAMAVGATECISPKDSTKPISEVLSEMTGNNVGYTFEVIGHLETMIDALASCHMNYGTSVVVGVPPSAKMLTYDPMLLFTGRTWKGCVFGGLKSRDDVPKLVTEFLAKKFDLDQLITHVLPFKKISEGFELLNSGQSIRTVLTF

Structure (SMILES): CC=O [acetaldehyde]
- Km [1]: 5000 µM
- Km [2]: 83000 µM
- Km [3]: 30 µM
- Km [4]: 3 µM
- Km [5]: 50 µM

Structure (SMILES): CCO [ethanol]
- kcat for ethanol oxidation ([6]; enzyme isolated from human stomach tissue): 16.67 to 25 s⁻¹
- kcat value for ethanol ([6]; pH 7.5): about 1000
- Km ([6]; read-out: Km for ethanol, enzyme isolated from human stomach tissue): ~41000 µM
